# Data reported in US7202254B2, “Antibacterial compounds: process for their preparation and pharmaceutical compositions containing them” (Dr. Reddy's Laboratories Limited, priority 2002, dated 2007).
row,SMILES,melting point
1,"OCc1cn(-c2ccc(N3CCOCC3)c(F)c2)nn1 [Example 2, [1-(3-Fluoro-4-morpholin-4-yl-phenyl)-1H-[1,2,3]triazol-4-yl]-methanol]",198 °C
2,"[N-]=[N+]=NCc1cn(-c2ccc(N3CCOCC3)c(F)c2)nn1 [Example 12, 4-[4-(4-Azidomethyl-[1,2,3]triazol-1-yl)-2-fluorophenyl]-morpholine]",90 °C
3,"NCc1cn(-c2cc(F)c(N3CC[S+]([O-])CC3)c(F)c2)nn1 [Example 28, C-{1-[3,5-Difluoro-4-(1-oxo-1lambda*4*-thiomorpholin-4-yl)-phenyl]-1H-[1,2,3]triazol-4-yl}-methylamine]",190 °C
4,"CC(=O)NCc1cn(-c2cc(F)c(N3CCOCC3)c(F)c2)nn1 [Example 41, N-[1-(3,5-Difluoro-4-morpholin-4-yl-phenyl)-1H-[1,2,3]triazol-4-ylmethyl]-acetamide]",218 °C
5,"CC(=O)NCc1cn(-c2ccc(N3CCOCC3)c(F)c2)nn1 [Example 42, N-[1-(3-Fluoro-4-morpholin-4-yl-phenyl)-1H-[1,2,3]triazol-4-ylmethyl]-acetamide]",218 °C
6,"CC(=O)NCc1cn(-c2cc(F)c(N3CCSCC3)c(F)c2)nn1 [Example 43, N-[1-(3,5-Difluoro-4-thiomorpholin-4-yl-phenyl)-1H-[1,2,3]triazol-4-ylmethyl]-acetamide]",210 °C
7,"CC(=O)NCc1cn(-c2cc(F)c(N3CC[S+]([O-])CC3)c(F)c2)nn1 [Example 44, N-{1-[3,5-Difluoro-4-(1-oxo-1lambda*4*-thiomorpholin-4-yl)-phenyl]-1H-triazol-4-ylmethyl}-acetamide]",203 °C
8,"CC(=O)NCc1cn(-c2cc(F)c(N3CCS(=O)(=O)CC3)c(F)c2)nn1 [Example 45, N-{1-[4-(1,1-Dioxo-1lambda*6*-thiomorpholin-4-yl)-3,5-difluoro-phenyl]-1H-[1,2,3]triazol-4-ylmethyl}-acetamide]",197 °C
9,"CC(=O)NCc1cn(-c2ccc(N3CCSCC3)c(F)c2)nn1 [Example 46, N-[1-(3-Fluoro-4-thiomorpholin-4-yl-phenyl)-1H-[1,2,3]triazol-4-ylmethyl]-acetamide]",207 °C
10,"CC(=O)NCc1cn(-c2ccc(N3CC[S+]([O-])CC3)c(F)c2)nn1 [Example 47, N-{1-[3-Fluoro-4-(1-oxo-1lambda*4*-thiomorpholin-4-yl)-phenyl]-H-[1,2,3]triazol-4-ylmethyl}-acetamide]",210 °C
11,"COC(=O)NCc1cn(-c2ccc(N3CC[S+]([O-])CC3)c(F)c2)nn1 [Example 48, {1-[3-Fluoro-4-(1-oxo-1lambda*4*-thiomorpholin-4-yl)-phenyl]-1H-[1,2,3]triazol-4-ylmethyl}-carbamic acid methyl ester]",218 °C
12,"CC(=O)NCc1cn(-c2ccc(N3CCS(=O)(=O)CC3)c(F)c2)nn1 [Example 49, N-{1-[4-(1,1-Dioxo-1lambda*6*-thiomorpholin-4-yl)-3-fluoro-phenyl]H-triazol-4-ylmethyl}-acetamide]",198 °C
13,"O=CNCc1cn(-c2ccc(N3CC[S+]([O-])CC3)c(F)c2)nn1 [Example 50, N-{1-[3-Fluoro-4-(1-oxo-1lambda*4*-thiomorpholin-4-yl)-phenyl]-1H-[1,2,3]triazol-4-ylmethyl}-formamide]",182 to 184 °C
14,"CC(=S)NCc1cn(-c2ccc(N3CC[S+]([O-])CC3)c(F)c2)nn1 [Example 53, N-{1-[3-Fluoro-4-(1-oxo-1lambda*4*-thiomorpholin-4-yl)-phenyl]-1H-[1,2,3]triazol-4-ylmethyl}-thioacetamide]",245 °C
15,"COC(=S)NCc1cn(-c2cc(F)c(N3CC[S+]([O-])CC3)c(F)c2)nn1 [Example 57, 1-[3,5-Difluoro-4-(1-oxo-1lambda*4*-thiomorpholin-4-yl)-phenyl]-1H-{[1,2,3]triazol-4-ylmethyl}-thiocarbamic acid O-methyl ester]",202 °C
16,"COC(=S)NCc1cn(-c2ccc(N3CCC4(CC3)OCCO4)c(F)c2)nn1 [Example 62, {1-[4-(1,4-Dioxa-8-aza-spiro[4.5]dec-8-yl)-3-fluoro-phenyl]-1H-[1,2,3]triazol-4-ylmethyl}-thiocarbamic acid O-methyl ester]",135 to 137 °C
17,"COC(=S)NCc1cn(-c2ccc(N3CCS(=N)CC3)c(F)c2)nn1 [Example 63, {1-[3-Fluoro-4-(1-imino-1lambda*4*-thiomorpholin-4-yl)-phenyl]-1H-[1,2,3]triazol-4-ylmethyl}-thiocarbamic acid O-methyl ester]",198 °C
18,"CNC(=S)NCc1cn(-c2cc(F)c(N3CCOCC3)c(F)c2)nn1 [Example 64, 1-[1-(3,5-Difluoro-4-morpholin-4-yl-phenyl)-1H-[1,2,3]triazol-4-ylmethyl]-3-methyl-thiourea]",181 °C
19,"CCNC(=S)NCc1cn(-c2ccc(N3CC[S+]([O-])CC3)c(F)c2)nn1 [Example 65, 1-Ethyl-3-{1-[3-fluoro-4-(1-oxo-1lambda*4*-thiomorpholin-4-yl)-phenyl]-1H-[2,3]triazol-4-ylmethyl}-thiourea]",204 °C
20,"NNC(=S)NCc1cn(-c2ccc(N3CCSCC3)c(F)c2)nn1 [Example 66, 1-[3-fluoro-4-(4-thiomorpholinyl)phenyl]-1H-1,2,3-triazol-4-ylmethylamino-hydrazinomethanethione]",174 to 176 °C

# Further lines, results first:
row,melting point,SMILES
1,184 °C,"CSC(=S)NCc1cn(-c2ccc(N3CC[S+]([O-])CC3)c(F)c2)nn1 [Example 68, {1-[3-Fluoro-4-(1-oxo-1lambda*4*-thiomorpholin-4-yl)-phenyl]-1H-[1,2,3]triazol-4-ylmethyl}-dithiocarbamic acid methyl ester]"
2,138 °C,"O=C(NC(=S)NCc1cn(-c2ccc(N3CCOCC3)c(F)c2)nn1)c1ccccc1 [Example 70, 1-Benzoyl-3-[1-(3-fluoro-4-morpholin-4-yl-phenyl)-1H-[1,2,3]triazol-4-ylmethyl]-thiourea]"
3,215 °C,"O=C(NCc1cn(-c2ccc(N3CCOCC3)c(F)c2)nn1)c1cnccn1 [Example 71, Pyrazine-2-carboxylic acid [1-(3-fluoro-4-morpholin-4-yl-phenyl)-1H-[1,2,3]triazol-4-ylmethyl]-amide]"
4,216 to 218 °C,"O=C(NCc1cn(-c2ccc(N3CCSCC3)c(F)c2)nn1)c1cnccn1 [Example 72, N-{1-[3-fluoro-4-(4-thiomorpholinyl)phenyl]-1H-1,2,3-triazol-4-ylmethyl}-pyrazine-2-carboxamide]"
5,118 °C,"CSC(=S)OCc1cn(-c2ccc(N3CCOCC3)c(F)c2)nn1 [Example 73, Dithiocarbonic acid O-[1-(3-fluoro-4-morpholin-4-yl-phenyl)-1H-[1,2,3]triazol-4-ylmethyl]ester S-methyl ester]"
6,190 to 192 °C,"O=C(NCc1cn(-c2ccc(N3CCSCC3)c(F)c2)nn1)c1ccccn1 [Example 75, N-{1-[3-Fluoro-4-(4-thiomorpholinyl)phenyl]-1H-1,2,3-triazol-4-ylmethyl}-pyridine-2-carboxamide]"
7,192 °C,"NC(=S)NCc1cn(-c2ccc(N3CCOCC3)c(F)c2)nn1 [Example 76, [1-(3-Fluoro-4-morpholin-4-yl-phenyl)-1H-[1,2,3]triazol-4-ylmethyl]-thiourea]"
8,228 to 230 °C,"NC(=S)NCc1cn(-c2ccc(N3CC[S+]([O-])CC3)c(F)c2)nn1 [Example 77, {1-[3-Fluoro-4-(1-oxo-1lambda*4*-thiomorpholin-4-yl)-phenyl]-1H-[1,2,3]triazol-4-ylmethyl}-thiourea]"
9,182 to 184 °C,"CNC(=S)NCc1cn(-c2ccc(N3CC[S+]([O-])CC3)c(F)c2)nn1 [Example 78, 1-{1–[3-Fluoro-4-(1-oxo-1lambda*4*-thiomorpholin-4-yl)-phenyl]-1H-[1,2,3]triazol-4-ylmethyl}-3-methyl-thiourea]"
10,190 °C,"O=C(NCc1cn(-c2ccc(N3CCOCC3)c(F)c2)nn1)C(Cl)Cl [Example 79, 2,2-Dichloro-N-[1-(3-fluoro-4-morpholin-4-yl-phenyl)-1H-[1,2,3]triazol-4-ylmethyl]-acetamide]"
11,174 to 176 °C,"CS(=O)(=O)NCc1cn(-c2ccc(N3CC[S+]([O-])CC3)c(F)c2)nn1 [Example 80, N-{1-[3-Fluoro-4-(1-oxo-1lambda*4*-thiomorpholin-4-yl)-phenyl]-1H-[1,2,3]triazol-4-ylmethyl}-methanesulfonamide]"
12,158 to 160 °C,"Fc1cc(-n2cc(CNC(=S)c3ccccn3)nn2)ccc1N1CCSCC1 [Example 81, N-{1-[3-fluoro-4-(−4-thiomorpholinyl)phenyl]-1H-1,2,3-triazol-4-ylmethyl}-pyridine-2-thiocarboxamide]"
13,145 to 147 °C,"COC(=S)NCc1cn(-c2ccc(N3CCC(=O)CC3)c(F)c2)nn1 [Example 82, {1-[3-Fluoro-4-(4-oxo-piperidin-1-yl)-phenyl]-1H-[1,2,3]triazol-4-ylmethyl}-thiocarbamic acid O-methyl ester]"
14,141 to 142 °C,"COC(=S)NCc1cn(-c2ccc(N3CCC(=NO)CC3)c(F)c2)nn1 [Example 83, {1-[3-Fluoro-4-(4-hydroxyimino-piperidin-1-yl)-phenyl]-1H-[1,2,3]triazol-4-ylmethyl}-thiocarbamic acid O-methyl ester]"
15,198 °C,"COC(=S)NCc1cn(-c2ccc(N3CCC(=C(C#N)C#N)CC3)c(F)c2)nn1 [Example 84, {1-[4-(4-Dicyanomethylene-piperidin-1-yl)-3-fluoro-phenyl]-1H-[1,2,3]triazol-4-ylmethyl}-thiocarbamic acid O-methyl ester]"
16,175 to 176 °C,"COC(=S)NCc1cn(-c2cc(F)c(N3CCC(=O)CC3)c(F)c2)nn1 [Example 85, {1-[3,5-Difluoro-4-(4-oxo-piperidin-1-yl)-phenyl]-1H-[1,2,3]triazol-4-ylmethyl}thiocarbamic acid O-methyl ester]"
